Marks after values point to notes of the source that are not given here.
Columns and labels:
Type in all cases: cell-based
[1] = test system: A. actinomycetemcomitans virulence genes; experiment: Virulence gene expression in multi-species biofilm (SYBR RT-qPCR)
Method in brief: (§1)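 Multi-species biofilms on hydroxyapatite disks were grown 24 h under microaerophilic conditions at 37 °C, then rinsed three times daily for 3 min over 3 days with substrate in PBS at 1 M or 1% (w/v); PBS pH 5.7 served as control. Virulence gene expression was measured by SYBR RT-qPCR normalized to housekeeping genes, giving 2^-ΔΔCt fold change versus control as geometric mean (n = 3).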

[2] = test system: P. gingivalis virulence genes; experiment: as above; details: for fold change in fimA expression, geometric mean (95% C.I.) / fold change in kgp expression, geometric mean (95% C.I.) / fold change in partC expression, geometric mean (95% C.I.) / fold change in rgpA expression, geometric mean (95% C.I.): relative to control, 2^-ΔΔCt, n = 3
Method in brief: as §1

[3] = test system: P. intermedia virulence genes; experiment: as above; details: relative to control = 1
Method in brief: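 Multi-species biofilms grown 24 h on CAD-HA disks (37° C., microaerophilic), then rinsed 3×/day for 3 min over 3 days with substrate at 1 M or 1% (w/v) in PBS; PBS pH 5.7 as control. Expression of 33 genes by SYBR RT-qPCR, normalized to housekeeping genes; fold change by 2^-ΔΔCt, geometric mean (95% C.I.), n = 3.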

[4] = test system: human oral keratinocytes (HOK-18A); experiment: Inflammatory mediator gene expression in keratinocytes exposed to substrate-treated biofilms (SYBR RT-qPCR); details: relative to control, n = 3
Method in brief: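 HOK-18A keratinocytes were exposed to multi-species biofilms treated with substrates dissolved in PBS at 1 M or 1% (w/v). Inflammatory mediator expression was measured by SYBR RT-qPCR against β-actin, with fold change versus control by 2^-ΔΔCt, reported as geometric mean (n = 3).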

[5] = lower part of Table 6a, substrate 1%(w/v), relative to control = 1
[6] = substrate 1 M, relative to control = 1, 2^-ΔΔCt, n = 3
[7] = lower part of Table 6d, head prints 1 M (lower part 1%(w/v))
[8] = upper part of Table 6d, substrate 1 M, n = 3
[9] = HOK-18A exposed to biofilms treated with substrate 1% (w/v)
[10] = HOK-18A exposed to biofilms treated with substrate 1 M

`CC(=O)N[C@H]1C(O)O[C@H](CO)[C@@H](O)[C@@H]1O` (stereo partly drawn) [NADG, N-acetyl-D-glucosamine] was tested, and the “fold change in aae expression, geometric mean (95% C.I.)” value [1, 5] was 1.55 (1.18-2.03) fold, the “fold change in apaH expression, geometric mean (95% C.I.)” value [1, 5] was 0.73 (0.41-1.29) fold and the “fold change in cdtB expression, geometric mean (95% C.I.)” value [1, 5] was 1.05 (0.61-1.81) fold. For the same compound, the “fold change in emaA expression, geometric mean (95% C.I.)” value [1, 5] was 0.68 (0.15-3.07) fold, the “fold change in flp expression, geometric mean (95% C.I.)” value [1, 5] was 0.54 (0.19-1.56) fold and the “fold change in ltxA expression, geometric mean (95% C.I.)” value [1, 5] was 0.4 (0.11-1.39) fold. For the same compound, the “fold change in omp29 expression, geometric mean (95% C.I.)” value [1, 5] was 0.77 (0.69-0.87) fold, the “fold change in omp100 expression, geometric mean (95% C.I.)” value [1, 5] was 0.71 (0.42-1.18) fold and the “fold change in orf859 expression, geometric mean (95% C.I.)” value [1, 5] was 1.99 (0.94-4.22)* fold. The “fold change in pgA expression, geometric mean (95% C.I.)” value [1, 5] was 1.07 (0.29-3.97) fold, the “fold change in vapA expression, geometric mean (95% C.I.)” value [1, 5] was 0.65 (0.48-0.86) fold and the “fold change in vppA expression, geometric mean (95% C.I.)” value [1, 5] was 0.28 (0.09-0.86)* fold. The “fold change in aae expression, geometric mean (95% C.I.)” value [1, 6] was 0.24 (0.18-0.33)^∗ fold, the “fold change in apaH expression, geometric mean (95% C.I.)” value [1, 6] was 0.08 (0.02-0.29)^∗ fold and the “fold change in cdtB expression, geometric mean (95% C.I.)” value [1, 6] was 0.04 (0.01-0.20)* fold. The “fold change in emaA expression, geometric mean (95% C.I.)” value [1, 6] was 0.29 (0.07-1.20)* fold, the “fold change in flp expression, geometric mean (95% C.I.)” value [1, 6] was 2.40 (0.67-8.67) fold and the “fold change in ltxA expression, geometric mean (95% C.I.)” value [1, 6] was 0.01 (0.00-0.20)* fold. The “fold change in omp29 expression, geometric mean (95% C.I.)” value [1, 6] was 0.19 (0.09-0.38)* fold, the “fold change in omp100 expression, geometric mean (95% C.I.)” value [1, 6] was 0.03 (0.01-0.05)* fold and the “fold change in orf859 expression, geometric mean (95% C.I.)” value [1, 6] was 0.13 (0.05-0.36)* fold. The “fold change in pgA expression, geometric mean (95% C.I.)” value [1, 6] was 11.6 (3.23-41.74)* fold, the “fold change in vapA expression, geometric mean (95% C.I.)” value [1, 6] was 1.00 (0.58-1.75) fold and the “fold change in vppA expression, geometric mean (95% C.I.)” value [1, 6] was 0.49 (0.41-0.59) fold. For the same compound, the “downregulation of P. gingivalis partC expression” value ([2]; substrate 1% (w/v)) was “approximately 2.8 fold”, the “fold change in fimA expression, geometric mean (95% C.I.)” value ([2]; substrate 1 % (w/v)) was 1.15 (0.32-4.06) fold and the “fold change in kgp expression, geometric mean (95% C.I.)” value ([2]; substrate 1 % (w/v)) was 1.81 (0.44-7.50) fold. For the same compound, the “fold change in partC expression, geometric mean (95% C.I.)” value ([2]; substrate 1 % (w/v)) was 0.36 (0.08-1.68)^∗ fold, the “fold change in rgpA expression, geometric mean (95% C.I.)” value ([2]; substrate 1 % (w/v)) was 1.31 (1.03-1.66) fold and the “fold change in fimA expression, geometric mean (95% C.I.)” value ([2]; substrate 1 M) was 0.79 (0.44-1.39) fold. For the same compound, the “fold change in kgp expression, geometric mean (95% C.I.)” value ([2]; substrate 1 M) was 0.07 (0.04-0.13)^∗ fold, the “fold change in partC expression, geometric mean (95% C.I.)” value ([2]; substrate 1 M) was 0.19 (0.13-0.28)^∗ fold and the “fold change in rgpA expression, geometric mean (95% C.I.)” value ([2]; substrate 1 M) was 0.39 (0.18-0.84) fold. For the same compound, the “fold change in DnaJ expression, geometric mean (95% C.I.)” value [3, 7] was 0.70 (0.50-0.99) fold, the “fold change in DnaK expression, geometric mean (95% C.I.)” value [3, 7] was 0.77 (0.34-1.77) fold and the “fold change in ECF expression, geometric mean (95% C.I.)” value [3, 7] was 0.48 (0.11-2.02) fold. For the same compound, the “fold change in GroES expression, geometric mean (95% C.I.)” value [3, 7] was 0.75 (0.49-1.14) fold, the “fold change in HtpG expression, geometric mean (95% C.I.)” value [3, 7] was 0.46 (0.22-0.94)* fold and the “fold change in KpsD expression, geometric mean (95% C.I.)” value [3, 7] was 0.78 (0.37-1.62) fold. For the same compound, the “fold change in adpc expression, geometric mean (95% C.I.)” value [3, 7] was 0.67 (0.64-0.69) fold, the “fold change in clpB expression, geometric mean (95% C.I.)” value [3, 7] was 1.06 (0.58-1.96) fold and the “fold change in inpA expression, geometric mean (95% C.I.)” value [3, 7] was 0.53 (0.24-1.17)* fold. The “fold change in phg expression, geometric mean (95% C.I.)” value [3, 7] was 0.69 (0.47-1.00) fold, the “fold change in DnaJ expression, geometric mean (95% C.I.)” value [3, 8] was 0.64 (0.35-1.16) fold and the “fold change in DnaK expression, geometric mean (95% C.I.)” value [3, 8] was 2.34 (1.23-4.43)* fold. For the same compound, the “fold change in ECF expression, geometric mean (95% C.I.)” value [3, 8] was 20.32 (4.81-85.88)^∗ fold, the “fold change in GroES expression, geometric mean (95% C.I.)” value [3, 8] was 1.86 (1.38-2.50) fold and the “fold change in HtpG expression, geometric mean (95% C.I.)” value [3, 8] was 3.40 (2.27-5.08)* fold. For the same compound, the “fold change in KpsD expression, geometric mean (95% C.I.)” value [3, 8] was 1.72 (0.62-4.72) fold, the “fold change in adpc expression, geometric mean (95% C.I.)” value [3, 8] was 2.65 (1.25-5.62)* fold and the “fold change in clpB expression, geometric mean (95% C.I.)” value [3, 8] was 2.03 (0.94-4.41) fold. The “fold change in inpA expression, geometric mean (95% C.I.)” value [3, 8] was 4.52 (4.14-4.94)^∗ fold, the “fold change in phg expression, geometric mean (95% C.I.)” value [3, 8] was 0.57 (0.38-0.85)* fold and the “fold change in IL-1β gene expression, geometric mean (C.I.)” value [4, 9] was 0.71 (0.38-1.33)^∗ fold. The “fold change in IL-6 gene expression, geometric mean (C.I.)” value [4, 9] was 0.73 (0.58-0.93)^∗ fold, the “fold change in IL-8 gene expression, geometric mean (C.I.)” value [4, 9] was 1.00 (0.78-1.27) fold and the “fold change in MMP-8 gene expression, geometric mean (C.I.)” value [4, 9] was 0.52 (0.17-1.6)^∗ fold. For the same compound, the “fold change in TNF-α gene expression, geometric mean (C.I.)” value [4, 9] was 0.71 (0.28-1.35)^∗ fold, the “fold change in IL-1β gene expression, geometric mean (C.I.)” value [4, 10] was 0.75 (0.55-1.02) fold and the “fold change in IL-6 gene expression, geometric mean (C.I.)” value [4, 10] was 0.57 (0.46-0.71) fold. The “fold change in IL-8 gene expression, geometric mean (C.I.)” value [4, 10] was 0.14 (0.06-0.36)^∗ fold, the “fold change in MMP-8 gene expression, geometric mean (C.I.)” value [4, 10] was 1.28 (0.79-2.08) fold and the “fold change in TNF-α gene expression, geometric mean (C.I.)” value [4, 10] was 0.89 (0.59-1.34) fold.
